From PubChem BioAssay (NCI)
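Cells were grown in 96-well plates and exposed to each compound for 48 hours at five concentrations; endpoints were interpolated linearly between bracketing concentrations, or set to the highest concentration if not reached. Definition used: TGI = concentration required for complete inhibition of growth.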

Assays:
Experiment in all cases: NCI tumour cell line growth inhibition, 48 h
LXFL 529 NSCLC = test system: LXFL 529 NSCLC
SNB-78 CNS = test system: SNB-78 CNS
DMS 273 small cell lung = test system: DMS 273 small cell lung
XF 498 CNS = test system: XF 498 CNS
DMS 114 small cell lung = test system: DMS 114 small cell lung
HOP-18 NSCLC = test system: HOP-18 NSCLC
DLD-1 colon = test system: DLD-1 colon
M19-MEL melanoma = test system: M19-MEL melanoma

Row | Structure (SMILES) | TGI (LXFL 529 NSCLC) | TGI (SNB-78 CNS) | TGI (DMS 273 small cell lung) | TGI (XF 498 CNS) | TGI (DMS 114 small cell lung) | TGI (HOP-18 NSCLC) | TGI (DLD-1 colon) | TGI (M19-MEL melanoma)
1 | CCN(CC)CC(=O)O[C@]1(CC)C(=O)OCc2c1cc1n(c2=O)Cc2cc3ccccc3nc2-1 | 3.3 µM | > 100 µM | 0.0304 µM | 2.19 µM | 0.362 µM | > 100 µM | > 100 µM | 0.738 µM
2 | COc1ccc(-c2cc(=O)c3ccccc3[nH]2)c(OC)c1 | > 100 µM | > 100 µM | > 100 µM | – | > 100 µM | – | > 100 µM | > 100 µM
3 | C=C1CCC23CC(CC[C@@H]2[C@@]12C[C@@H](c1ccoc1)OC2=O)OC3=O (stereo not given in full) | > 100 µM | > 100 µM | > 100 µM | > 100 µM | > 100 µM | > 100 µM | > 100 µM | > 100 µM
4 | C/C(=C1/CCC/C(=C(/C)c2ccccc2)C1=O)c1ccccc1 | > 100 µM | > 100 µM | > 100 µM | 82 µM | 70.3 µM | > 100 µM | > 100 µM | 58.3 µM
5 | C=CCc1cc(-c2cc(CC=C)c(O)c(CNCCCl)c2)cc(CNCCCl)c1O | 29.3 µM | > 100 µM | – | – | 42.2 µM | – | 57 µM | 32.3 µM
